Data reported in ChEMBL document CHEMBL1156583, “Zwitterionic uracil derivatives as potent GnRH receptor antagonists with improved pharmaceutical properties” (Bioorg Med Chem Lett, 2008).

What was measured:
[1] = target: T1, Gonadotropin-releasing hormone receptor (Homo sapiens, UniProt P30968); assay: Displacement of [125I]tyr5,D-Leu6,NMeLeu7-GnRH from human cloned GnRH receptor expressed in RBL cells; type: cell-based
T1 sequence (P30968 whole entry): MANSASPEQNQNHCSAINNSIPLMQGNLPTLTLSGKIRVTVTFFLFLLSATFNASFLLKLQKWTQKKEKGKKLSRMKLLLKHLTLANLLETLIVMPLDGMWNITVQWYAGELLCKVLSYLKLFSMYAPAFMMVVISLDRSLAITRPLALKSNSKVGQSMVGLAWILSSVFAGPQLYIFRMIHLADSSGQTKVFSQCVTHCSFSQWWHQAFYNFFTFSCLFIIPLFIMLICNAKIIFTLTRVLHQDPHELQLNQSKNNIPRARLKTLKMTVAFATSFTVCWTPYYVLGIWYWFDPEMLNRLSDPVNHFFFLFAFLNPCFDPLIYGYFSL

[2] = target: T1, Gonadotropin-releasing hormone receptor; assay: Antagonist activity at human GnRH receptor expressed in RBL cells assessed as inhibition of GnRH-stimulated [3H]inositol phosphate hydrolysis by whole cell assay; type: functional, cell-based
Cytochrome P450 3A4 = Cytochrome P450 3A4 (Homo sapiens, UniProt P08684); assay: Inhibition of recombinant CYP3A4 by microtiter plate-based fluorimetric assay; type: ADME
Cytochrome P450 3A4, sequence (P08684 whole entry): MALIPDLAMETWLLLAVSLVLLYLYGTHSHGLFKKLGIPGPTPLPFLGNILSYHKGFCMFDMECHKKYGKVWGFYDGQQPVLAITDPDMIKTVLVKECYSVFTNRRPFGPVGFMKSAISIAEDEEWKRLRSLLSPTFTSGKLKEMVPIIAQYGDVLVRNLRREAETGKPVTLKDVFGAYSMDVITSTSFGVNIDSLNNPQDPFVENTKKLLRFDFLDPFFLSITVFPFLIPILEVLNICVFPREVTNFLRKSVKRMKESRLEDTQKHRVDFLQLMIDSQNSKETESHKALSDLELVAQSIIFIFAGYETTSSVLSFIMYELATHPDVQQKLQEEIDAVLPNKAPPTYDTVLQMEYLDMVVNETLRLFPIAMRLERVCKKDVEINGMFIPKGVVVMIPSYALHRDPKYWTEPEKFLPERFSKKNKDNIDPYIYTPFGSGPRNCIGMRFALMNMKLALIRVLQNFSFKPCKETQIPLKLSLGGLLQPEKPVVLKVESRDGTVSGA

[3] = target: T1, Gonadotropin-releasing hormone receptor; assay: Displacement of [125I]Pro-N-Et-GnRH from human cloned GnRH receptor expressed in HEK cells; type: cell-based, HEK293
[4] = Half life in Sprague-Dawley rat at 2.5 mg/kg, iv; type: ADME, organism-based; design: dose 2.5 mg/kg, route intravenous; details: in vivo
[5] = Clearance in Sprague-Dawley rat at 2.5 mg/kg, iv; type: ADME, organism-based; design: dose 2.5 mg/kg, route intravenous; details: in vivo
[6] = Oral bioavailability in Sprague-Dawley rat at 10 mg/kg; type: ADME, organism-based; details: in vivo
[7] = Permeability from apical to basolateral side of human Caco-2 cell membrane; type: ADME, cell-based
CYP3A4 = CYP3A4 (Homo sapiens, UniProt P08684); assay: Inhibition of recombinant CYP3A4 at 200 uM by microtiter plate-based fluorimetric assay; type: ADME
CYP3A4, sequence (P08684 whole entry): as above

Row | Ki [1] [nM] | IC50 (Cytochrome P450 3A4) [µM] | Ki [3] [nM] | SMILES | other results
1 | 7.5 | – | – | Cc1c(-c2cccc(OCCCC(=O)O)c2)c(=O)n(C[C@H](N)c2ccccc2)c(=O)n1Cc1c(F)cccc1C(F)(F)F | IC50 [2]: 23 nM
2 | 9.3 | 10 | – | CN[C@@H](Cn1c(=O)c(-c2cccc(OCCOCC(=O)O)c2F)c(C)n(Cc2c(F)cccc2C(F)(F)F)c1=O)c1ccccc1 | –
3 | 10.1 | – | – | Cc1c(-c2cccc(OCCC(=O)O)c2F)c(=O)n(C[C@H](N)c2ccccc2)c(=O)n1Cc1c(F)cccc1C(F)(F)F | –
4 | 35 | – | – | CN[C@@H](Cn1c(=O)c(-c2cccc(OCCCN(C)CC(=O)O)c2F)c(C)n(Cc2c(F)cccc2C(F)(F)F)c1=O)c1ccccc1 | –
5 | – | 25 | 33 | N[C@@H](Cn1c(=O)c(-c2cccc(OCCCCCC(=O)O)c2F)cn(Cc2c(F)cccc2C(F)(F)F)c1=O)c1ccccc1 | –
6 | 27 | – | – | CN[C@@H](Cn1c(=O)c(-c2cccc(OCCNCC(=O)O)c2F)c(C)n(Cc2c(F)cccc2C(F)(F)F)c1=O)c1ccccc1 | –
7 | – | 22 | 4.1 | Cc1c(-c2cccc(OCCCCC(=O)O)c2)c(=O)n(C[C@H](N)c2ccccc2)c(=O)n1Cc1c(F)cccc1C(F)(F)F | IC50 [2]: 26 nM; half-life [4]: 600 min; clearance [5]: 7.5 mL/min/kg; bioavailability [6]: 1.1%; Papp A→B [7]: 0.1 ×10⁻⁶ cm/s
8 | – | 13 | 1.2 | CN[C@@H](Cn1c(=O)c(-c2cccc(OCCCCC(=O)O)c2F)c(C)n(Cc2c(F)cccc2C(F)(F)F)c1=O)c1ccccc1 | half-life [4]: 306 min; clearance [5]: 50 mL/min/kg; bioavailability [6]: 13%; Papp A→B [7]: 1.2 ×10⁻⁶ cm/s
9 | 1.2 | 8.2 | 1.3 | Cc1c(-c2cccc(OCCCCCC(=O)O)c2F)c(=O)n(C[C@H](N)c2ccccc2)c(=O)n1Cc1c(F)cccc1C(F)(F)F | IC50 [2]: 0.6 nM; half-life [4]: 174 min; clearance [5]: 21 mL/min/kg; bioavailability [6]: 3.7%
10 | 29 | 22 | – | CN[C@@H](Cn1c(=O)c(-c2cccc(OCCC(C)(C)CC(=O)O)c2F)c(C)n(Cc2c(F)cccc2C(F)(F)F)c1=O)c1ccccc1 | –
11 | 52 | – | – | Cc1c(-c2cccc(OCC(=O)O)c2F)c(=O)n(C[C@H](N)c2ccccc2)c(=O)n1Cc1c(F)cccc1C(F)(F)F | inhibition at 200 µM (CYP3A4): 16%
12 | 155 | 33 | – | CN[C@@H](Cn1c(=O)c(-c2cccc(OCCCNCC(=O)O)c2F)c(C)n(Cc2c(F)cccc2C(F)(F)F)c1=O)c1ccccc1 | –
13 | 38 | 22 | – | CN[C@@H](Cn1c(=O)c(-c2cccc(OCCCOCC(=O)O)c2F)c(C)n(Cc2c(F)cccc2C(F)(F)F)c1=O)c1ccccc1 | –
14 | 98 | – | – | CN[C@@H](Cn1c(=O)c(-c2cccc(OCCN(C)CC(=O)O)c2F)c(C)n(Cc2c(F)cccc2C(F)(F)F)c1=O)c1ccccc1 | –
15 | – | 36 | 34 | N[C@@H](Cn1c(=O)c(-c2cccc(OCCCCC(=O)O)c2F)cn(Cc2c(F)cccc2C(F)(F)F)c1=O)c1ccccc1 | –
16 | 4.7 | – | – | Cc1c(-c2cccc(OCCCC(=O)O)c2F)c(=O)n(C[C@H](N)c2ccccc2)c(=O)n1Cc1c(F)cccc1C(F)(F)F | inhibition at 200 µM (CYP3A4): 21%
17 | – | 42 | 15 | Cc1c(-c2cccc(OCCCCC(=O)O)c2F)c(=O)n(C[C@@H](c2ccccc2)N(C)C)c(=O)n1Cc1c(F)cccc1C(F)(F)F | Papp A→B [7]: 17 ×10⁻⁶ cm/s
18 | 1 | – | 1.2 | Cc1c(-c2cccc(OCCCCC(=O)O)c2F)c(=O)n(C[C@H](N)c2ccccc2)c(=O)n1Cc1c(F)cccc1C(F)(F)F | IC50 [2]: 2.6 nM; half-life [4]: 396 min; clearance [5]: 14 mL/min/kg; bioavailability [6]: 6.6%; Papp A→B [7]: 0.1 ×10⁻⁶ cm/s
19 | 1.1 | – | 2.1 | Cc1c(-c2cccc(OCCCCCC(=O)O)c2)c(=O)n(C[C@H](N)c2ccccc2)c(=O)n1Cc1c(F)cccc1C(F)(F)F | IC50 [2]: 2.8 nM; half-life [4]: 294 min; clearance [5]: 36 mL/min/kg; bioavailability [6]: 4.8%
